From PMC7663979, “Design of Novel 4-Aminobenzofuroxans and Evaluation of Their Antimicrobial and Anticancer Activity” (International Journal of Molecular Sciences, 2020)
Several values for one entry are separate records, joined by “and”; a condition that tells them apart may be missing. Identical values can stand only once.

How the values were obtained:
[1] = system: Microdochium nivale isolate 21; experiment: Fungistatic activity, agar growth medium poison technique, isolate 21; assay type: cell-based; conditions: 1 mM in PSA; for inhibition at 1000 µM: Microdochium nivale
Description: (§1) Fungistatic activity of the tested compounds was assessed in vitro using agar growth medium poison technique. The target compounds as well as widely used fungicides benzimidazole and carbendazim were dissolved to 10 mM concentration in 20% Tween 20. The obtained solutions were added 1:9 v/v (giving 1 mM-concentrations of the target compounds) to potato-sucrose agar (PSA) at 60 °C, mixed thoroughly and transferred to Petri dishes. For the control variants, PSA was supplemented with 20% Tween 20 (9:1). Fungistatic effect was tested against two isolates of Microdochium nivale causing snow mold disease of winter cereals (rye) from the culture collection of FRC Kazan Scientific Center of RAS. […] The center of each solidified medium was inoculated upside-down with 5-mm diameter mycelial plug cut from the periphery of 10-day-old cultures. The tested dishes were incubated at 20 °C. The percentage growth inhibition was calculated using Abbott’s formula (1):%Inhibition = [(A − B) ÷ A] × 100(1) where ‘A’ is mycelia growth in the control conditions and ‘B’ is mycelia growth in the treatment conditions. The assay was performed at least in triplicate. Linear growth of each colony was determined during 6 days.

T98G = experiment: cells; assay type: cell-based, human; conditions: for IC50: Homo sapiens, T98G, read-out: IC50 T98G; for SI T98G: selectivity index = IC50 normal cells (Chang liver) / IC50 cancer cells, n.s. = no selectivity
[2] = system: Microdochium nivale isolate 1; experiment: Fungistatic activity, agar growth medium poison technique, isolate 1; assay type: cell-based; conditions: 1 mM in PSA; for inhibition at 1000 µM: Microdochium nivale; for inhibition at 1000 µM / growth inhibition: 20 °C
Description: as §1

PANC-1 = experiment: Cytotoxicity assay (Cytell Cell Viability BioApp), PANC-1; assay type: cell-based, human; conditions: for IC50: Homo sapiens, PANC-1, mean ± SD, three experiments; for SI PANC-1: selectivity index = IC50 normal cells (Chang liver) / IC50 cancer cells, n.s. = no selectivity
M-HeLa = experiment: Cytotoxicity assay (Cytell Cell Viability BioApp), M-HeLa; assay type: cell-based, human; conditions: for IC50: Homo sapiens, M-HeLa, mean ± SD, three experiments; for SI M-HeLa: selectivity index = IC50 normal cells (Chang liver) / IC50 cancer cells, n.s. = no selectivity
MCF7 = experiment: Cytotoxicity assay (Cytell Cell Viability BioApp), MCF7; assay type: cell-based, human; conditions: for IC50: Homo sapiens, MCF7, mean ± SD, three experiments; for SI MCF7: selectivity index = IC50 normal cells (Chang liver) / IC50 cancer cells, n.s. = no selectivity
Chang Liver = experiment: Cytotoxicity assay (Cytell Cell Viability BioApp), normal Chang liver cells; assay type: cell-based; conditions: Homo sapiens, mean ± SD, three experiments, read-out: IC50 Chang Liver (normal cell line)
M-HeLa cells [3] = experiment: Cell apoptosis analysis by flow cytometry (annexin V-Alexa Fluor 647 / propidium iodide); assay type: cell-based, human; conditions: 24 h
Description: (§2) Cell Culture. M-HeLa cells at 10^6 cells/ well in a final volume of 2 mL were seeded into 6-well plates. After 24 h of incubation, various concentrations of compounds 3c and 3f were added to wells.
Cell Apoptosis Analysis. The cells were harvested at 2000 rpm for 5 min and, then, washed twice with ice-cold PBS, followed by resuspension in binding buffer 100 μL. Next, the samples were incubated with 0.35 μL of annexin V-Alexa Fluor 647 and 0.1 μL of propidium iodide for 40 min at room temperature in the dark. Finally, the cells were analyzed by flow cytometry (Guava easyCyte, MERCK, Kenilworth, NJ, USA). The experiments were repeated three times.

M-HeLa cells [4] = experiment: Cell cycle analysis, propidium iodide, flow cytometry; assay type: cell-based, human; conditions: 24 h, control cells 34.28%
Description: as §2
The DNA content and cell-cycle distribution after […] were estimated by flow cytometry. Cell seeding, drug treatment and ethanol fixation were similar to cell proliferation assay. After washing with PBS, […] were suspended in 150 μL of PBS, then 0.5 mL phosphate-citrate buffer (0.05 M, pH = 4.0) was added and the suspension was incubated at room temperature for 5 min to facilitate the extraction of low molecular weight DNA. Following centrifugation the cells were resuspended in 150 μL DNA staining solution (20 μg/mL propidium iodide, 200 μg/mL […], and 0.1% Triton X-100) and incubated in the CO2 incubator (37 °C for 30 min). Cell cycle distribution was determined by fluorescence-activated cell sorting analysis of propidium iodide-stained ethanol-fixed cells using a Guava EasyCyte (Guava easyCyte, MERCK, Kenilworth, NJ, USA).

Compound | IC50 (T98G) [µM] | SI T98G (T98G) | IC50 (PANC-1) [µM] | SI PANC-1 (PANC-1) | IC50 (M-HeLa) [µM] | SI M-HeLa (M-HeLa) | IC50 (MCF7) [µM] | SI MCF7 (MCF7) | IC50 (Chang Liver) [µM] | other results
CCCCNc1c([N+](=O)[O-])c(Cl)cc2c1no[n+]2[O-] [Compound 5a, 4-(butylamino)-6-chloro-5-nitrobenzofuroxan] | 22.7 ± 1.9 | 4.4 | > 100 | n.s. | 56.5 ± 4.5 | 1.8 | > 100 | n.s. | 100 | growth inhibition ([1]; sixth day of incubation, 20 °C): did not cause any inhibition; inhibition at 1000 µM ([1]; fifth day of incubation, 20 °C): 10%; fungistatic activity (result in words) [2]: one of the most effective
O=[N+]([O-])c1c(Cl)cc2c(no[n+]2[O-])c1NN1CCOCC1 [Compound 5e, 6-chloro-4-(morpholinoamino)-5-nitrobenzofuroxan] | 57.1 ± 4.3 | 1.1 | > 100 | n.s. | 61.6 ± 5.2 | 1.1 | > 100 | n.s. | 65.2 ± 5.8 | –
CN(Cc1ccccc1)c1c([N+](=O)[O-])c(Cl)cc2c1no[n+]2[O-] [Compound 5f, 4-(benzyl(methyl)amino)-6-chloro-5-nitrobenzofuroxan] | > 100 | n.s. | > 100 | n.s. | 62.2 ± 5.6 | >1.6 | > 100 | n.s. | > 100 | inhibition at 1000 µM ([1]; fifth day of incubation, 20 °C): < 20%; inhibition at 1000 µM ([1]; sixth day of incubation, 20 °C): < 10%; inhibition at 1000 µM ([2]; fifth day of incubation): < 20%; inhibition at 1000 µM ([2]; sixth day of incubation): < 10%
COC(=O)Nc1nc2ccccc2[nH]1 [carbendazim, methyl-2-benzimidazole carbamate, reference compound] | – | – | – | – | – | – | – | – | – | inhibition at 1000 µM ([1]; sixth day of incubation, 20 °C): 100%; growth inhibition ([2]; fifth day of incubation): null inhibitory effect
O=[N+]([O-])c1c(Cl)cc2c(no[n+]2[O-])c1NC1CCCCC1 [Compound 5d, 6-chloro-4-(cyclohexylamino)-5-nitrobenzofuroxan] | 31.6 ± 2.5 | 2.1 | > 100 | n.s. | 61 ± 5.2 | 1.1 | 79.1 ± 6.2 | n.s. | 67.1 ± 5.7 | –
O=[N+]([O-])c1c(Cl)cc2c(no[n+]2[O-])c1Cl [4,6-dichloro-5-nitrobenzofuroxan, reference compound] | – | – | – | – | – | – | – | – | – | fungistatic activity (result in words) [1]: not effective; fungistatic activity (result in words) [2]: not effective
O=[N+]([O-])c1c(Cl)cc2c(no[n+]2[O-])c1Nc1ccc(F)cc1 [Compound 3a, 6-chloro-4-((4-fluorophenyl)amino)-5-nitrobenzofuroxan] | 28.3 ± 2.3 | 3.3 | > 100 | n.s | 45.9 ± 3.7 | 2.0 | > 100 | n.s. | 93.8 ± 8.3 | –
COc1cccc2c1C(=O)c1c(O)c3c(c(O)c1C2=O)C[C@@](O)(C(=O)CO)C[C@@H]3O[C@H]1C[C@H](N)[C@H](O)[C@H](C)O1 [Doxorubicin, reference compound] | 6.8 ± 0.5 | n.s. | 3.3 ± 0.1 | 1.0 | 3 ± 0.1 | 1.0 | 3 ± 0.2 | 1.0 | 3 ± 0.2 | –
c1ccc2[nH]cnc2c1 [benzimidazole, reference compound] | – | – | – | – | – | – | – | – | – | growth inhibition ([2]; fifth day of incubation): null inhibitory effect
CCCCCCNc1c([N+](=O)[O-])c(Cl)cc2c1no[n+]2[O-] [Compound 5b, 6-chloro-4-(hexylamino)-5-nitrobenzofuroxan] | 65 ± 5.8 | >1.5 | 50 ± 3.9 | >2 | 60.8 ± 4.8 | >1.6 | > 100 | n.s. | > 100 | –
O=[N+]([O-])c1c(Cl)cc2c(no[n+]2[O-])c1Nc1ccc(Br)cc1 [Compound 3c, 4-((4-bromophenyl)amino)-6-chloro-5-nitrobenzofuroxan] | 20.4 ± 1.7 | 3 | 59.2 ± 4.6 | 1.0 | 4.8 ± 0.4 | 12.8 | 3.7 ± 0.2 | 16.6 | 61.3 ± 5.1 | inhibition at 1000 µM ([1]; fifth day of incubation, 20 °C): > 40%; inhibition at 1000 µM ([1]; sixth day of incubation, 20 °C): > 25%; D—dead cells (M-HeLa cells [3]; 5 μM): 3.92%; Ea—early apoptotic cells (M-HeLa cells [3]; 5 μM): 6.67%; La—late apoptotic cells (M-HeLa cells [3]; 5 μM): 8.63%; L—living cells (M-HeLa cells [3]; 5 μM): 80.78%; D—dead cells (M-HeLa cells [3]; 10 μM): 6.16%; Ea—early apoptotic cells (M-HeLa cells [3]; 10 μM): 17.33%; La—late apoptotic cells (M-HeLa cells [3]; 10 μM): 15.69%; L—living cells (M-HeLa cells [3]; 10 μM): 60.82%; inhibition at 1000 µM ([2]; fifth day of incubation): > 40%; inhibition at 1000 µM ([2]; sixth day of incubation): > 25%; cells in G0/G1 phase (G1) (M-HeLa cells [4]; 5 μM): 62.9% and 62.91%; cells in G0/G1 phase (G1) (M-HeLa cells [4]; 10 μM): 70.1% and 70.06%
N#Cc1ccc(Nc2c([N+](=O)[O-])c(Cl)cc3c2no[n+]3[O-])cc1 [Compound 3d, 6-chloro-4-((4-cyanophenyl)amino)-5-nitrobenzofuroxan] | 14.7 ± 1.2 | >6.8 | 61.3 ± 5.1 | >1.6 | 16.6 ± 1.4 | >6 | 67.9 ± 5.7 | >1.5 | > 100 | –
COc1ccccc1Nc1c([N+](=O)[O-])c(Cl)cc2c1no[n+]2[O-] [Compound 3e, 6-chloro-4-((2-methoxyphenyl)amino)-5-nitrobenzofuroxan] | 21.5 ± 1.8 | 3.0 | 50 ± 4.1 | 1.3 | 62.7 ± 5.4 | 1.0 | 79.5 ± 6.4 | n.s. | 62.7 ± 5.6 | fungistatic activity (result in words) [1]: one of the most pronounced inhibitory effects; fungistatic activity (result in words) [2]: inefficient
O=[N+]([O-])c1c(Cl)cc2c(no[n+]2[O-])c1Nc1ccc(Cl)cc1 [Compound 3b, 6-chloro-4-((4-chlorophenyl)amino)-5-nitrobenzofuroxan] | 12.7 ± 1.1 | 5.0 | 82.7 ± 7.3 | n.s | 60.6 ± 4.7 | 1.0 | 69.2 ± 5.7 | n.s. | 62.7 ± 5.5 | inhibition at 1000 µM ([1]; fifth day of incubation, 20 °C): > 40%; inhibition at 1000 µM ([1]; sixth day of incubation, 20 °C): > 25%; inhibition at 1000 µM ([2]; fifth day of incubation): > 40%; inhibition at 1000 µM ([2]; sixth day of incubation): > 25%
